These are literature values, as cited in patent US20100172986A1, “CONTROLLED RELEASE COMPOSITION AND PREPARATION THEREOF” (LOTUS PHARMACEUTICAL CO., LTD., priority 2006, published 2010).

For this data set the following is noted: in adults.

`CCCC(CCC)C(=O)O` [valproic acid, 2-Propylpentanoic acid]: the elimination half-life result is “six and seventeen”.
